These results are taken from patent US12466813B2, “PRC1 inhibitors and methods of treatment therewith” (The Regents of the University of Michigan, priority 2018, dated 2025).

The test deals with T1, RING1B-BMI1 (Homo sapiens, UniProt Q99496).
T1 sequence (Q99496 1-336): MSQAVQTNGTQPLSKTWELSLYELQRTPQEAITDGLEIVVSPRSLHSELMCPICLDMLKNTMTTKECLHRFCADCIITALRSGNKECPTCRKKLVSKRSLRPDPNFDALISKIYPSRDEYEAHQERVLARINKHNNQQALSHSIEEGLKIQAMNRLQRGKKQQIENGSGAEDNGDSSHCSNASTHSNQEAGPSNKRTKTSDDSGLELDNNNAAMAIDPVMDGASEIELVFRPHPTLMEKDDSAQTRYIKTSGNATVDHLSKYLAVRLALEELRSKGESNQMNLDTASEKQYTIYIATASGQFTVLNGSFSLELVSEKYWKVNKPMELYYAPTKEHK
T1 sequence (P35226 1-326 partner): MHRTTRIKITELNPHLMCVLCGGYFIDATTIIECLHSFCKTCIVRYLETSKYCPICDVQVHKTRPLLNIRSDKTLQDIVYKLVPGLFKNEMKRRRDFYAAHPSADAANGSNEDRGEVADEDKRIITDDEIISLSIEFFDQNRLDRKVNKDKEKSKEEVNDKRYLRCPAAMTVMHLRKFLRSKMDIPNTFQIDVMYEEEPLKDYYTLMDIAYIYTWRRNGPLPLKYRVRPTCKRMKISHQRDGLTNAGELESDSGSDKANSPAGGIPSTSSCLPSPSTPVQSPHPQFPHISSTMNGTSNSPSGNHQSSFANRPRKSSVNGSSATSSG
Put plainly: KD classes of Table A (direct binding to Ring1B-Bmi1). Conditions: class given in Table A.
In general, Kd refers to the concentration at which binding is half-saturated. A low value points to a tighter complex. For the molecule `CC(C)c1c(-c2cc(F)cc3[nH]ccc23)[nH]c(C(N)=O)c1-c1cccc2[nH]c(C(=O)O)cc12` [compound 191], the Kd is less than 20 µM. The same measure for `COc1cc(-c2c(C(=O)O)[nH]c(-c3cc(F)cc4[nH]ccc34)c2C(C)C)c2cc(CO)[nH]c2c1` [compound 192]: less than 20 µM. The figure for `COc1cc(-c2c(C(=O)O)[nH]c(-c3cc(F)cc4[nH]ccc34)c2C(C)C)c2cc(C)[nH]c2c1` [compound 193] is less than 20 µM; for `CC(C)c1c(-c2cc(F)cc3[nH]ccc23)[nH]c(C(=O)O)c1-c1cccc2[nH]c(-c3nnn[nH]3)cc12` [compound 194] it is less than 20 µM.

The molecule `CCC(C)c1c(-c2cc(F)cc3[nH]ccc23)[nH]c(C(=O)O)c1-c1cc(OC)cc2[nH]c(CO)cc12` (centres unmarked) [compound 195] returned a Kd of less than 20 µM. With `CC(C)CCOc1cc(-c2c(C(=O)O)[nH]c(-c3cc(F)cc4[nH]ccc34)c2C(C)C)c2cc[nH]c2c1` [compound 196], the Kd is less than 20 µM. Consider `CC(C)c1c(-c2cc(F)cc3[nH]ccc23)[nH]c(C(=O)O)c1-c1cc(C(=O)O)cc2[nH]ccc12` [compound 197], for which the Kd is less than 20 µM. The molecule `CC(C)c1c(-c2cc(F)cc3[nH]ccc23)[nH]c(C(=O)O)c1-c1cc(C(=O)N2CCCC2)cc2[nH]ccc12` [compound 198] returned a Kd of less than 20 µM. In the case of `CC(C)c1c(-c2cc(F)cc3[nH]ccc23)[nH]c(C(=O)O)c1-c1cc(C(=O)NCC2CC2)cc2[nH]ccc12` [compound 199], the Kd is less than 20 µM. Take `CC(C)c1c(-c2cc(F)cc3[nH]ccc23)[nH]c(C(=O)O)c1-c1cc(C(=O)NCc2nccs2)cc2[nH]ccc12` [compound 200]: the dissociation constant Kd was less than 20 µM. The figure for `CC(C)c1c(-c2cc(F)cc3[nH]ccc23)[nH]c(C(=O)O)c1-c1cc(Oc2nccs2)cc2[nH]ccc12` [compound 201] is less than 20 µM. The figure for `CC(C)Cc1cc2c(-c3c(C(=O)O)[nH]c(-c4cc(F)cc5[nH]ccc45)c3C(C)C)cccc2[nH]1` [compound 202] is less than 20 µM; for `CC(C)c1c(-c2cc(F)cc3[nH]ccc23)[nH]c(C(=O)O)c1-c1c[nH]c2ccccc12` [compound 203, 5-(6-fluoro-1H-indol-4-yl)-3-(1H-indol-3-yl)-4-isopropyl-1H-pyrrole-2-carboxylic acid] it is less than 20 µM; for `CC(C)c1c(-c2cc(F)cc3[nH]ccc23)[nH]c(C(=O)O)c1-c1cccc2ncsc12` [compound 204] it is less than 20 µM. The figure for `CC(C)c1c(-c2cc(F)cc3[nH]ccc23)[nH]c(C(=O)O)c1-c1cccc2ncoc12` [compound 205] is less than 20 µM; for `CC(C)c1c(-c2cc(F)cc3[nH]ccc23)[nH]c(C(=O)O)c1-c1cccc2nc[nH]c12` [compound 206] it is less than 20 µM. Molecule `Cc1cc2c(-c3c(C(=O)O)[nH]c(-c4cc(F)cc5[nH]ccc45)c3C(C)C)ccnc2[nH]1` [compound 207] displayed a Kd of less than 20 µM. The same measure for `Cc1c[nH]c2nccc(-c3c(C(=O)O)[nH]c(-c4cc(F)cc5[nH]ccc45)c3C(C)C)c12` [compound 208]: less than 20 µM. The figure for `Cc1cnc2[nH]ccc2c1-c1c(C(=O)O)[nH]c(-c2cc(F)cc3[nH]ccc23)c1C(C)C` [compound 209] is less than 20 µM. With `CC(C)c1c(-c2cc(F)cc3[nH]ccc23)[nH]c(C(=O)O)c1-c1cccc2[nH]c3ccccc3c12` [compound 210], the Kd is less than 20 µM. For `CC(C)c1c(-c2cc(F)cc3[nH]ccc23)[nH]c(C(=O)O)c1-c1cccc2[nH]c3c(c12)CCCC3=O` [compound 211], the Kd is less than 20 µM. The same measure for `CC(C)c1c(-c2cc(F)cc3[nH]ccc23)[nH]c(C(=O)O)c1-c1cccc2[nH]c3c(c12)CCC3` [compound 212]: less than 20 µM; for `CC(C)c1c(-c2cc(F)cc3[nH]ccc23)[nH]c(C(=O)O)c1-c1ccc2c3c1ccn3CCO2` [compound 213]: less than 20 µM. The same measure for `CC(C)c1c(-c2cccc3c2ccn3N)[nH]c(C(=O)O)c1-c1cccc2[nH]ccc12` [compound 214]: less than 20 µM; for `CC(C)c1c(-c2cc(F)cc3[nH]ccc23)[nH]c(CC(=O)O)c1-c1cccc2[nH]ccc12` [compound 215]: less than 20 µM. With `CC(C)c1c(-c2cc(F)cc3[nH]ccc23)[nH]c(CCC(=O)O)c1-c1cccc2[nH]ccc12` [compound 216], the Kd is less than 20 µM.

As for `CC(C)c1c(-c2cc(F)cc3[nH]ccc23)[nH]c(S(N)(=O)=O)c1-c1cccc2[nH]ccc12` [compound 217], the Kd was less than 20 µM. The same measure for `CC(C)c1c(-c2cc(F)cc3[nH]ccc23)[nH]c(S(C)(=O)=O)c1-c1cccc2[nH]ccc12` [compound 218]: less than 20 µM; for `CC(C)c1c(-c2cc(F)cc3[nH]ccc23)[nH]c(CS(N)(=O)=O)c1-c1cccc2[nH]ccc12` [compound 219]: less than 20 µM. The same measure for `CC(C)c1c(-c2cc(F)cc3[nH]ccc23)[nH]c(CS(C)(=O)=O)c1-c1cccc2[nH]ccc12` [compound 220]: less than 20 µM; for `CC(C)c1c(-c2cc(F)cc3[nH]ccc23)[nH]c(CCS(N)(=O)=O)c1-c1cccc2[nH]ccc12` [compound 221]: less than 20 µM. The figure for `CC(C)c1c(-c2cccc3c(N)c[nH]c23)[nH]c(C(=O)O)c1-c1cccc2[nH]ccc12` [compound 223] is less than 20 µM; for `CC(C)c1c(-c2cc(F)cc3[nH]ccc23)[nH]c(C(=O)O)c1-c1cccc2[nH]c(-c3nccs3)cc12` [compound 224] it is less than 20 µM. On to `CC(C)c1c(-c2cc(F)cc3[nH]ccc23)[nH]c(C(=O)O)c1-c1cccc2[nH]c(-c3ccno3)cc12` [compound 225], for which the Kd was less than 20 µM. The figure for `CC(C)c1c(-c2cc(F)cc3[nH]ccc23)[nH]c(C(=O)O)c1-c1cccc2[nH]c(-c3cc(O)no3)cc12` [compound 226] is less than 20 µM. The same measure for `CC(C)c1c(-c2cc(F)cc3[nH]ccc23)[nH]c(C(=O)O)c1-c1cccc2[nH]c(S(N)(=O)=O)cc12` [compound 227]: less than 20 µM; for `CC(C)c1c(-c2cc(F)cc3[nH]ccc23)[nH]c(C(=O)O)c1-c1cccc2[nH]c(S(C)(=O)=O)cc12` [compound 228]: less than 20 µM. For `CC(C)c1c(-c2cc(F)cc3[nH]ccc23)[nH]c(C(=O)O)c1-c1cccc2[nH]c(CS(N)(=O)=O)cc12` [compound 229], the Kd was less than 20 µM. The same measure for `CC(C)c1c(-c2cc(F)cc3[nH]ccc23)[nH]c(C(=O)O)c1-c1cccc2[nH]c(CS(C)(=O)=O)cc12` [compound 230]: less than 20 µM; for `CC(C)c1c(-c2cc(F)cc3[nH]ccc23)[nH]c(C(=O)O)c1-c1cccc2[nH]c(CCS(N)(=O)=O)cc12` [compound 231]: less than 20 µM. The figure for `CC(C)c1c(-c2cc(F)cc3[nH]ccc23)[nH]c(C(=O)O)c1-c1cccc2nc(NS(C)(=O)=O)sc12` [compound 232] is less than 20 µM. `CC(C)c1c(-c2cc(F)cc3[nH]ccc23)[nH]c(C(=O)O)c1-c1ccnc2[nH]c(-c3nccs3)cc12` [compound 233] yielded a Kd of less than 20 µM. The figure for `CC(C)c1c(-c2cc(F)cc3[nH]ccc23)[nH]c(C(=O)O)c1-c1cc(OC2CCCC2)cc2[nH]ccc12` [compound 234] is less than 20 µM. The same measure for `CC(C)c1c(-c2cc(F)cc3[nH]ccc23)[nH]c(C(=O)O)c1-c1cc(OC2CCC2)cc2[nH]ccc12` [compound 235]: less than 20 µM.

Molecule `CC(C)c1c(-c2cc(F)cc3[nH]ccc23)[nH]c(C(=O)O)c1-c1cc(OC2COC2)cc2[nH]ccc12` [compound 236] returned a Kd of less than 20 µM. The figure for `COCc1ccc2[nH]ccc2c1-c1c(C(=O)O)[nH]c(-c2cc(F)cc3[nH]ccc23)c1C(C)C` [compound 237] is less than 20 µM; for `CSCc1ccc2[nH]ccc2c1-c1c(C(=O)O)[nH]c(-c2cc(F)cc3[nH]ccc23)c1C(C)C` [compound 238] it is less than 20 µM.

For the molecule `CNCc1ccc2[nH]ccc2c1-c1c(C(=O)O)[nH]c(-c2cc(F)cc3[nH]ccc23)c1C(C)C` [compound 239], the Kd is less than 20 µM. In turn, `CCNc1ccc2[nH]ccc2c1-c1c(C(=O)O)[nH]c(-c2cc(F)cc3[nH]ccc23)c1C(C)C` [compound 240] gave a Kd of less than 20 µM. The same measure for `Cc1ccc2[nH]ccc2c1-c1c(C(=O)O)[nH]c(-c2cc(F)cc3[nH]ccc23)c1C(C)C` [compound 241]: less than 20 µM; for `CCc1ccc2[nH]ccc2c1-c1c(C(=O)O)[nH]c(-c2cc(F)cc3[nH]ccc23)c1C(C)C` [compound 242]: less than 20 µM; for `CC(C)c1c(-c2cc(F)cc3[nH]ccc23)[nH]c(C(=O)O)c1-c1c(F)ccc2[nH]ccc12` [compound 243]: less than 20 µM.

For the molecule `COc1ccc2[nH]ccc2c1-c1c(C(=O)O)[nH]c(-c2cc(F)cc3[nH]ccc23)c1C(C)C` [compound 244], the Kd was less than 20 µM. With `CC(C)c1c(-c2cc(F)cc3[nH]ccc23)[nH]c(C(=O)O)c1-c1c(Cl)cnc2[nH]ccc12` [compound 245], the Kd is less than 20 µM.

On to `CC(C)c1c(-c2cc(F)cc3[nH]ccc23)[nH]c(C(=O)O)c1-c1c(F)cnc2[nH]ccc12` [compound 246], for which the Kd was less than 20 µM.

Molecule `COc1cnc2[nH]ccc2c1-c1c(C(=O)O)[nH]c(-c2cc(F)cc3[nH]ccc23)c1C(C)C` [compound 247] gave a Kd of less than 20 µM.
